The structures appear in SMILES notation. In brackets after ≈: the same amount, converted by molar mass.

This is an account of results in ChEMBL document CHEMBL5104138, “Discovery of pyridyl urea sulfonamide inhibitors of NaV1.7” (Bioorg Med Chem Lett, 2022).

Data set [1] is described as follows: Lipophilicity, logD of compound at pH 7.4. It counts as physicochemical. To be noted: buffer.
Data set [2] deals with Mus musculus. The data set is described as follows: Antinociceptive activity in mouse model of Histamine-induced itching assessed as reduction in scratching bouts at 10 mg/kg, po relative to control. The arrangement: scale not given: the % may be the effect or the level left. The data set is classed as functional.
The test system of data set [3] is Mus musculus. In words: Antinociceptive activity in capsaicin-induced licking mouse model assessed as reduction in time spent on licking at 10 mg/kg, po relative to control. The data set is classed as functional. Details: scale not given: the % may be the effect or the level left.
Data set [4] can be described thus: Unbound clearance in dog at 0.25 mg/kg, iv. It counts as ADME, organism-based, Canis lupus familiaris. The note with it: in vivo.
Data set [5] can be described thus: AUC in dog at 2 mg/kg, po. Details: dose 2 mg/kg, route po. To be noted: in vivo. It counts as ADME, organism-based, Canis lupus familiaris.
Data set [6] can be described thus: Oral bioavailability in dog at 2 mg/kg. The data set is classed as ADME, organism-based, Canis lupus familiaris. To be noted: in vivo.
The test system of data set [7] is Mus musculus. The data set is described as follows: Antinociceptive activity in UV burn-induced thermal hyperalgesia mouse model assessed as reduction in latency time at 30 mg/kg, po relative to control. It counts as functional. The arrangement: scale not given: the % may be the effect or the level left.
The nature of data set [8]: Clearance in rat at 0.5 mg/kg, iv. The note with it: in vivo.
Data set [9] relates to Mus musculus. The data set is described as follows: Antinociceptive activity in mouse model of Histamine-induced itching assessed as reduction in scratching bouts at 30 mg/kg, po relative to control. The arrangement: scale not given: the % may be the effect or the level left. The data set is classed as functional.
In data set [10] the target is T1, Cytochrome P450 3A4 (Homo sapiens, UniProt P08684). In words: Time dependent inhibition of CYP3A4 in human liver microsomes using midazolam as substrate incubated for 30 mins. The data set is classed as ADME, Microsome.
T1 sequence (P08684 whole entry): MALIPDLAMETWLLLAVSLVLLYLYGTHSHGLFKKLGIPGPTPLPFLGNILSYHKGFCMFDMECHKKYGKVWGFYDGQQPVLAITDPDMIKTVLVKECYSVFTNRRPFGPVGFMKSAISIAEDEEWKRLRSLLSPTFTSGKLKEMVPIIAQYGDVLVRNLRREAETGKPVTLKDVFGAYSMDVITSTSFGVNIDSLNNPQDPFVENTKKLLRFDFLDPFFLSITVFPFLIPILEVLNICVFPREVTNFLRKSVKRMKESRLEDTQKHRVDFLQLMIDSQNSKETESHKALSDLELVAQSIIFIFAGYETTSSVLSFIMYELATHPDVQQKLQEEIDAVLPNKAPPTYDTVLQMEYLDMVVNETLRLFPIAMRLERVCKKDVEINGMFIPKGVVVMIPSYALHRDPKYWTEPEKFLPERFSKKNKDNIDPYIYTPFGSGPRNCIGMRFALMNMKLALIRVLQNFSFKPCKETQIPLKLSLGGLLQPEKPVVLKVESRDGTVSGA
Data set [11] is described as follows: Solubility of the compound at pH 7.4. To be noted: buffer. It counts as physicochemical.
Data set [12] is described as follows: Oral bioavailability in rat at 10 mg/kg. To be noted: in vivo. The data set is classed as ADME, organism-based.
Data set [13] can be described thus: Oral bioavailability in mouse at 100 mg/kg. The data set is classed as ADME, organism-based. The note with it: in vivo.
In data set [14] the target is T1, Cytochrome P450 3A4. In words: Time dependent inhibition of CYP3A4 in human liver microsomes using midazolam as substrate preincubated for 30 mins followed by substrate addition. It counts as ADME, Microsome. For orientation: Liver microsomes are a subcellular fraction often used to study metabolism.
A short description of data set [15]: Permeability in MDCK cells. To be noted: dog, read-out: permeability. It counts as ADME, cell-based, Canis lupus familiaris.
The conditions of data set [16]: rat, in vivo, iv, 0.5 mg/kg.
Description: Unbound clearance in rat at 0.5 mg/kg, iv
A short description of data set [17]: Clearance in dog at 0.25 mg/kg, iv. The data set is classed as ADME, organism-based, Canis lupus familiaris. The note with it: in vivo.
Data set [18] has as its target Sodium channel protein type 5 subunit alpha (Homo sapiens, UniProt Q14524). The data set is described as follows: Inhibition of human Nav1.5 at -50 mV holding potential by PatchXpress assay.
The test system of data set [19] is Mus musculus. The data set is described as follows: Antinociceptive activity in mouse model of Histamine-induced itching assessed as reduction in scratching bouts at 3 mg/kg, po relative to control. It counts as functional. Details: scale not given: the % may be the effect or the level left.
A short description of data set [20]: Clearance in mouse. It counts as ADME, organism-based. To be noted: in vivo.
Data set [21] is described as follows: Half life in mouse at 100 mg/kg, po. It counts as ADME, organism-based. To be noted: in vivo.
The next data set concerns the target Cytochrome P450 2C9 (Homo sapiens, UniProt P11712). The data set is described as follows: Inhibition of CYP2C9 (unknown origin). It counts as ADME.
Another data set has as its target T2, PXR (NR1I2) (Homo sapiens, UniProt O75469).
T2 sequence (O75469 whole entry): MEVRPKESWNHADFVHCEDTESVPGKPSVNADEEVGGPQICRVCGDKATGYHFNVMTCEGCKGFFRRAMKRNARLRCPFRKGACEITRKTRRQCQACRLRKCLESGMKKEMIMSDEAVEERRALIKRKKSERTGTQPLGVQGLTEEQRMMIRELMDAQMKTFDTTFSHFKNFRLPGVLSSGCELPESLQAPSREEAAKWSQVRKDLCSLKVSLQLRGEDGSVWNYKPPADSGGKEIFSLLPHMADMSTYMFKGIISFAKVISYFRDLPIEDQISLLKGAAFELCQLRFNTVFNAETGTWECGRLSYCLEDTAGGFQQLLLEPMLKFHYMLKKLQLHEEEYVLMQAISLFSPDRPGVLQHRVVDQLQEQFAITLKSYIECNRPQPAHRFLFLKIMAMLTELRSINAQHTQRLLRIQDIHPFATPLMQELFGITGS
The data set is described as follows: Activation of human PXR at 10 uM relative to control. It counts as toxicity. To be noted: read-out: Activity.

A short description of data set [22]: AUC in mouse at 100 mg/kg, po. The data set is classed as ADME, organism-based. The arrangement: dose 100 mg/kg, route po. The note with it: in vivo.
Data set [23] can be described thus: Half life in rat at 10 mg/kg, po. It counts as ADME, organism-based. To be noted: in vivo.
Data set [24] in a line: half life in dog at 2 mg/kg, po. The data set is classed as ADME, organism-based, Canis lupus familiaris. To be noted: in vivo.
A short description of data set [25]: Unbound clearance in mouse. To be noted: in vivo. The data set is classed as ADME, organism-based.
Data set [26] can be described thus: AUC in rat at 10 mg/kg, po. The note with it: in vivo. The data set is classed as ADME, organism-based. The arrangement: dose 10 mg/kg, route po.
For data set [27], the target named is Sodium channel protein type 9 subunit alpha (Homo sapiens, UniProt Q15858). The data set is described as follows: Inhibition of human Nav1.7 by PatchXpress assay.
Data set [28] can be described thus: Intrinsic clearance in rat liver microsomes assessed as loss of parent compound incubated for 30 mins. It counts as ADME, Microsome. The note with it: read-out: CLH.
Data set [29] deals with Mus musculus. In words: Antinociceptive activity in capsaicin-induced licking mouse model assessed as reduction in time spent on licking at 3 mg/kg, po relative to control. It counts as functional. Details: scale not given: the % may be the effect or the level left.
Data set [30] in a line: Passive permeability of compound. It counts as ADME. The note with it: not told; read-out: permeability.
Data set [31] deals with T3, Cytochrome P450 2D6 (Homo sapiens, UniProt P10635). The data set is described as follows: Time dependent inhibition of CYP2D6 (unknown origin) preincubated for 30 mins followed by substrate addition. It counts as ADME.
T3 sequence (P10635 whole entry): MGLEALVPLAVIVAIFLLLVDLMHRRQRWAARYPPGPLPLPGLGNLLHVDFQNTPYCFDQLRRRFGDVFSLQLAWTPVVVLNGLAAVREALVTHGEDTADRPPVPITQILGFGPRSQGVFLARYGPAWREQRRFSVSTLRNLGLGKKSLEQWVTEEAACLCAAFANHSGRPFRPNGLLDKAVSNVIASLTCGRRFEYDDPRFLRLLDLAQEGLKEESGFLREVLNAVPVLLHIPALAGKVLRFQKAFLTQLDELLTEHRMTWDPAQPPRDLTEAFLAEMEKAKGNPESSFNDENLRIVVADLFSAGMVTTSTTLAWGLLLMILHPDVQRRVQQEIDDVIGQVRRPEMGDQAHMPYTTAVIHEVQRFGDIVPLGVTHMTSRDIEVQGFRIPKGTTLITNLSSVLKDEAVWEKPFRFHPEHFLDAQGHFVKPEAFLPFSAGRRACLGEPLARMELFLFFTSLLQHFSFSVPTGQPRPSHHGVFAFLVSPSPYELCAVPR
The target of data set [32] is T3, Cytochrome P450 2D6. In words: Time dependent inhibition of CYP2D6 (unknown origin) incubated for 30 mins. It counts as ADME.

Sequence of Sodium channel protein type 5 subunit alpha (Q14524 whole entry): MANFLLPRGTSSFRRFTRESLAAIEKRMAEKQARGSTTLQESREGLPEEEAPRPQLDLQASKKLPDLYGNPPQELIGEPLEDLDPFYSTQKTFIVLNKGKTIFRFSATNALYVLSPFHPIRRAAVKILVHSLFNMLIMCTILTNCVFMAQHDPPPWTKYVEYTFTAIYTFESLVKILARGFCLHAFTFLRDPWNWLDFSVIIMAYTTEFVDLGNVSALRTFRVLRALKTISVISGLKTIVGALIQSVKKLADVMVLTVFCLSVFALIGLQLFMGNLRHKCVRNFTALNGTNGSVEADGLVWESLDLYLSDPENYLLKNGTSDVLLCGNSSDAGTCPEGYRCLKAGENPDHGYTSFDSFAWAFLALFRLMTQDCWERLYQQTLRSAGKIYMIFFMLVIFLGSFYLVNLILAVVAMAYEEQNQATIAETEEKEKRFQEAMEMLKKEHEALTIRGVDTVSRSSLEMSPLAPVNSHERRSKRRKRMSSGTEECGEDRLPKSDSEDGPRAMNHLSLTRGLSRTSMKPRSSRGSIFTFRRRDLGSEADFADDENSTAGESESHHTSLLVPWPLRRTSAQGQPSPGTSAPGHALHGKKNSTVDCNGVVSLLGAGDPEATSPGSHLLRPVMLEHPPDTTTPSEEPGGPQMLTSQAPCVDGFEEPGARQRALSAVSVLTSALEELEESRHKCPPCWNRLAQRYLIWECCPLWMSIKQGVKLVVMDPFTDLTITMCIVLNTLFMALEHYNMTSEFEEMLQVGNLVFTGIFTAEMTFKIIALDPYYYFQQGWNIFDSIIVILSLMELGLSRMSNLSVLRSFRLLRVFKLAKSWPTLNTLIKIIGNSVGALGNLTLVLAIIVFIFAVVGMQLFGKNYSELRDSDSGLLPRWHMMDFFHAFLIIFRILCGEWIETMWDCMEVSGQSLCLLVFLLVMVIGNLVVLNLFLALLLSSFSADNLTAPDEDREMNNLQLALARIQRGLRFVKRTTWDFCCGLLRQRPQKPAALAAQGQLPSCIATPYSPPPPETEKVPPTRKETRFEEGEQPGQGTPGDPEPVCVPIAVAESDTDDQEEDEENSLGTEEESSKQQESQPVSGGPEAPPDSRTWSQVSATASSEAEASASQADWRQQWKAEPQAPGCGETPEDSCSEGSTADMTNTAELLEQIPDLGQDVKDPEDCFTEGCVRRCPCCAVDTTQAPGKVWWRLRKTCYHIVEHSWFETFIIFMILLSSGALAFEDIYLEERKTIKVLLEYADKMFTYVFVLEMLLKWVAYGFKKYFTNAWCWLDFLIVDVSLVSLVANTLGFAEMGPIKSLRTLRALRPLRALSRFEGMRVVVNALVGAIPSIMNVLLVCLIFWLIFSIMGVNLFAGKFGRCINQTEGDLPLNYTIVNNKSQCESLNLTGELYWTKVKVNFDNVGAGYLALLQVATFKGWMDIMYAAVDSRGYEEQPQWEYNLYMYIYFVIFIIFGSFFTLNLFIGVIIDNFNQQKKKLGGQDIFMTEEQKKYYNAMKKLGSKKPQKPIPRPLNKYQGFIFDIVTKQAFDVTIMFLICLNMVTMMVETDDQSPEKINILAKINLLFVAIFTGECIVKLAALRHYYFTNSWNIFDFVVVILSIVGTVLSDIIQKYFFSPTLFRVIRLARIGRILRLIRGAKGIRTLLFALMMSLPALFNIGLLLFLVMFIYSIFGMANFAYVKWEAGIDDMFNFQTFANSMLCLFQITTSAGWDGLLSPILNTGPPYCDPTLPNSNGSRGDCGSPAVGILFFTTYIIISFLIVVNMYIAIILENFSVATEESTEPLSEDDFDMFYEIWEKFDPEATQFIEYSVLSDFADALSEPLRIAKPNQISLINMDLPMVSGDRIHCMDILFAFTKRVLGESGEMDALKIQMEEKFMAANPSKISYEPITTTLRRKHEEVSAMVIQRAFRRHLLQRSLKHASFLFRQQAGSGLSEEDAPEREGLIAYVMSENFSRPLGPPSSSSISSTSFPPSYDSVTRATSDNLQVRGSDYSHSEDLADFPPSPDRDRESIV
Sequence of Cytochrome P450 2C9 (P11712 whole entry): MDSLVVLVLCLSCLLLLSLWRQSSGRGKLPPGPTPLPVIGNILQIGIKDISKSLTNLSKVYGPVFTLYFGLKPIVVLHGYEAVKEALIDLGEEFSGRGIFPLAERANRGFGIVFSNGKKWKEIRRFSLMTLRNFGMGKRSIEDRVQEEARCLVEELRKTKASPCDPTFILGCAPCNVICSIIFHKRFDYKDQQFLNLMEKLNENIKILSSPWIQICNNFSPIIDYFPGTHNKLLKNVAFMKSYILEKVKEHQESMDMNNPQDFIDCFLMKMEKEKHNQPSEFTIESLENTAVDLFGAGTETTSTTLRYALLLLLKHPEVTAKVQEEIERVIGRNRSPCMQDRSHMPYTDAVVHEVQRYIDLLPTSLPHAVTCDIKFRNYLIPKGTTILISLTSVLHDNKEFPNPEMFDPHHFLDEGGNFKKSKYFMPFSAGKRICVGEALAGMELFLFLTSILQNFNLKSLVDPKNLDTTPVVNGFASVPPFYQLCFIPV

In data set [1], `CNC(=O)N(c1ccc(S(=O)(=O)Nc2ncccn2)cn1)c1cc(F)c(-c2ccc(F)c(OC(F)(F)F)c2)cc1OC` yielded a logD of 1.4. For the same molecule, the Activity in the data set on Mus musculus [2] is on record as 83%; with Mus musculus [3], 63%; in the data set on Mus musculus [7], 89%; in the data set with Mus musculus [9], 95%; in the data set on Mus musculus [19], 55%. For the same molecule, the CL free in [4] worked out at 60 mL/min/kg; in [16], 733 mL/min/kg; in data set [25], 183 mL/min/kg. Besides, the area under the curve (AUC) in data set [5] was found to be 200 µM·h; in data set [22] it was 1150 µM·h; in data set [26], 212 µM·h. Further, the bioavailability in data set [6] was 104%; in data set [12], 95%; in [13] it was 80%. Also, the results for the clearance in data set [8], in data set [17] and in [20] were 1.17 mL/min/kg, 0.25 mL/min/kg and 1.67 mL/min/kg, respectively. Besides, the concentration for half-maximal inhibition (IC50) at Cytochrome P450 3A4 [10] is greater than 50 µM; on Cytochrome P450 3A4 [14], greater than 50 µM; in [18], 40 µM; at Cytochrome P450 2C9, 3.3 µM. The molecule also came in with a solubility in data set [11] of 260 µM (≈ 159 µg/mL). In addition, the Papp in data set [15] is 18 ×10⁻⁶ cm/s. In addition, the half-life in [21] was 3.4 h; in data set [23], 4.6 h; in data set [24] it was 18 h. Moreover, the activity at 10 µM at PXR (NR1I2) is 3%.
With `CNC(=O)N(c1ccc(S(=O)(=O)Nc2ccon2)cn1)c1cc(Cl)c(-c2cc(OC)cc(C(F)(F)F)c2)cc1OC`, the IC50 at Cytochrome P450 3A4 [10] is 17 µM; against Cytochrome P450 3A4 [14], greater than 50 µM.
In the case of `COc1cc(-c2ccc(Cl)c(C)c2)ccc1-n1c(=O)ccc2cc(S(=O)(=O)Nc3ccon3)ccc21`, the logD in [1] amounted to 2.5. The IC50 was 5 µM in data set [27], 0.01 µM in data set [27] (record 2), 32 µM against Cytochrome P450 3A4 [10] and greater than 50 µM against Cytochrome P450 3A4 [14]. Moreover, in data set [8], the clearance was 13 mL/min/kg. For the same molecule, the CL free in [16] is 2200 mL/min/kg. The microsomal CLint in data set [28] was found to be 28 µL/min/mg.
Turning to `CNC(=O)N(c1ccc(S(=O)(=O)Nc2ccon2)cn1)c1cc(Cl)c(-c2cccc(C(F)(F)F)c2)cc1OC`, the values for the concentration for half-maximal inhibition (IC50) (in data set [27]; on Cytochrome P450 3A4 [10]; against Cytochrome P450 3A4 [14]) were 0.017 µM, 5 µM and greater than 50 µM, respectively.
Consider `CN1CC[C@]23c4c5ccc(O)c4O[C@H]2[C@@H](O)C=C[C@H]3[C@H]1C5` [MORPHINE], for which the Activity in the data set with Mus musculus [29] stood at 98%.
Regarding `COc1cc(-c2cccc(C(F)(F)F)c2)c(Cl)cc1N(C(N)=O)c1ccc(S(=O)(=O)Nc2ccon2)cn1`, in data set [27], the 50% inhibitory concentration (IC50) was found to be 0.008 µM. The clearance in data set [8] is 88.3 mL/min/kg. In addition, in [30], the Papp is less than 1.5 ×10⁻⁶ cm/s.
As for `CNC(=O)N(c1ccc(S(=O)(=O)Nc2ccon2)cc1)c1ccc(-c2ccc(Cl)c(C)c2)cc1OC`, the half-maximal inhibitory concentration (IC50) in [27] was 3.8 µM. For the same molecule, in [8], the clearance is 22.2 mL/min/kg. Besides, the Papp in data set [30] is 1.5 ×10⁻⁶ cm/s. The molecule also yielded a CL free in data set [16] of 3000 mL/min/kg.
For `CN(C)CCOC(c1ccccc1)c1ccccc1` [DIPHENHYDRAMINE], the Activity with Mus musculus [9] was determined as 73%.
In data set [27], `COc1cc(-c2ccc(Cl)c(C)c2)ccc1N(C(=O)N(C)C)c1ccc(S(=O)(=O)Nc2ccon2)cn1` registered an IC50 greater than 5 µM.
For `CNC(=O)N(c1ccc(S(=O)(=O)Nc2ccon2)cn1)c1cc(F)c(-c2ccc(F)c(OC(F)(F)F)c2)cc1OC`, the clearance in data set [8] is 48.3 mL/min/kg. Besides, the 50% inhibitory concentration (IC50) against Cytochrome P450 3A4 [10] and on Cytochrome P450 3A4 [14] was greater than 50 µM throughout. In [16], this molecule yielded a CL free of 7070 mL/min/kg.
`CNC(=O)N(c1ccc(S(=O)(=O)Nc2cccnn2)cn1)c1cc(F)c(-c2ccc(F)c(OC(F)(F)F)c2)cc1OC`: in [1], the logD stood at 1.8. The molecule also gave a clearance in [8] of 11.7 mL/min/kg. In addition, the concentration for half-maximal inhibition (IC50) on Cytochrome P450 3A4 [10] is greater than 50 µM; against Cytochrome P450 2D6 [31], 19 µM; on Cytochrome P450 2D6 [32], 30 µM; on Cytochrome P450 3A4 [14] it was greater than 50 µM. The molecule also had a CL free in [16] of 1150 mL/min/kg.
The molecule `COc1cc(-c2ccc(Cl)c(C#N)c2)c(F)cc1-n1c(=O)ccc2cc(S(=O)(=O)Nc3ccon3)ccc21` displayed an IC50 in [27] of 0.008 µM. The same molecule showed a clearance in data set [8] of 35 mL/min/kg. The molecule further returned a CL free in data set [16] of 10100 mL/min/kg.

One may read the logD as lipophilicity at a set pH, counting ionised and neutral species. What is called AUC is concentration integrated over time. A word on the clearance: it is the rate of elimination divided by the concentration. What is called IC50 is the concentration that gives 50% inhibition. In general, solubility refers to how much of the substance goes into solution per volume. As usually defined, the half-life is how long it takes for the measured level to halve.
